Assay results taken from patent publication US6930104B2, “Heterocyclic derivatives” (Takeda Chemical Industries, Ltd., priority 2001, dated 2005).

System: sAPP secretion in PC12h cells
Assay: Stimulatory effects on sAPP secretion (Western blotting of culture supernatant)
Format: cell-based, rat
Details: 1 nM concentration, 5 hours after addition, averaged from triplicate wells
Method: PC12h cells, a subspecies of rat-derived pheochromocytoma PC12 cells, were provided by the late Professor Hiroshi Hatanaka (Osaka University, Japan). Dulbecco's modified Eagle's medium (DMEM), phosphate buffered saline (PBS), HEPES (N-2-hydroxyethylpiperazine-N′-2-ethanesulfonic acid) buffer (pH 7.4), horse serum (HS) and a penicillin (5000 U/ml)/streptomycin (5 mg/ml) mixture were purchased from Gibco BRL. Fetal calf serum (FCS) was purchased from Bioscience PTY. Transferrin, insulin and progesterone were purchased from Sigma. The flasks used for culture were manufactured by Falcon, and the collagen-coated 96-well and 6-well multiwell plates used for assay were manufactured by Iwaki Glass Co., Ltd. (Japan). An LDH assay kit (LDH cytotoxic test Wako) and an anti-βAPP antibody 22C11 were purchased from Wako Pure Chemical Industries, Ltd. (Japan) and Chemicon, respectively. All other chemicals used were commercially available and of reagent grade.
PC12h cells were grown in DMEM culture medium supplemented with 10% FCS, 5% HS and penicillin/streptomycin, and then released by pipetting. The cells were seeded in collagen-coated 6-well plates at a confluency of 50% to 70% and allowed to stand for 1 day. On the following day, the wells were washed once with 10 mM HEPES/DMEM (1 ml) and then filled with 10 mM HEPES/DMEM culture medium (0.5 ml), followed by addition of Example No. 5 or 32. After 5 hours, the culture supernatant was collected from each well. Trichloroacetic acid (final concentration: 15%) was added to the culture supernatant to precipitate proteins, which were then concentrated. After addition of SDS-PAGE sample buffer (Daiichi Pure Chemicals Co., Ltd., Japan), each sample was boiled for 5 minutes, subjected to SDS-PAGE (10/20% gel, ATTO) and then transferred to a PVDF membrane (Bio-Rad Laboratories) at 2 mA/cm^2 for 60 minutes. […] An ECL Plus (Amersham) was used for detection and the signals were digitized by an LAS-1000 plus (Fuji film, Japan), followed by quantification with NIH-image software.

In the case of COc1ccc(C(=O)N2c3ccccc3C(n3c4ccccc4c4ccccc43)CC2C)cc1OC (stereo not drawn) [Example 32, 2,4-cis-4-(9H-9-Carbazolyl)-1-(3,4-dimethoxybenzoyl)-2-methyl-1,2,3,4-tetrahydroquinoline], the “increase in sAPP production compared to the control group” value is reported as “approximately 2.2 fold”.

System: not given
Assay: not given
Details: not given

Compared with CCCCC1C=C(n2c3ccccc3c3ccccc32)c2ccccc2N1C(=O)c1ccc(OC)c(OC)c1 (stereo not shown) [Example 59, 2-Butyl-4-(9H-9-carbazolyl)-1-(3,4-dimethoxybenzoyl)-1,2-dihydroquinoline], COc1ccc(C(=O)N2c3ccccc3C(n3c4ccccc4c4ccccc43)=CC2C)cc1OC (stereo not shown) [Example 161, 4-(9H-9-Carbazolyl)-1-(3,4-dimethoxybenzoyl)-2-methyl-1,2-dihydroquinoline] is higher in melting point: 174 to 175 °C for the first, 184 to 185 °C for the second.

First: COc1ccc(C(=O)N2c3ccccc3C(N3CCc4ccccc43)CC2C)cc1OC (stereo not shown) [Example 61, 4-(2,3-Dihydro-1H-indol-1-yl)-1-(3,4-dimethoxybenzoyl)-2-methyl-1,2,3,4-tetrahydroquinoline]
Second: COc1ccc(C(=O)N2c3ccccc3C(N3CCSc4ccccc43)CC2C)cc1OC (stereo not shown) [Example 72, 4-[1-(3,4-Dimethoxybenzoyl)-2-methyl-1,2,3,4-tetrahydroquinolin-4-yl]-3,4-dihydro-2H-1,4-benzothiazine]
The melting point of the first is higher: 147 to 148 °C for the first, 113 to 114 °C for the second.

Compared with COc1ccc(C(=O)N2c3ccccc3C(N3CCc4ccccc4C3)CC2C)cc1OC (stereo not shown) [Example 73, 1-(3,4-Dimethoxybenzoyl)-2-methyl-4-(1,2,3,4-tetrahydroisoquinolin-2-yl)-1,2,3,4-tetrahydroquinoline], COc1ccc(C(=O)N2c3ccccc3C(N3CCCc4ccc(C)cc43)CC2C)cc1OC (stereo not drawn) [Example 81, 2,4-cis-1-(3,4-Dimethoxybenzoyl)-2-methyl-4-(7-methyl-1,2,3,4-tetrahydroquinolin-1-yl)-1,2,3,4-tetrahydroquinoline] is higher in melting point: 128 to 129 °C for the first, 197 to 198 °C for the second.

First: CCCC1CC(N2CCCc3ccccc32)c2ccccc2N1C(=O)c1ccc(OC)c(OC)c1 (stereo not drawn) [Example 75, 2,4-cis-1-(3,4-Dimethoxybenzoyl)-2-propyl-4-(1,2,3,4-tetrahydroquinolin-1-yl)-1,2,3,4-tetrahydroquinoline]
Second: CCCCC1CC(N2CCCc3ccccc32)c2ccccc2N1C(=O)c1ccc(OC)c(OC)c1 (stereo not drawn) [Example 77, 2,4-cis-2-Butyl-1-(3,4-dimethoxybenzoyl)-4-(1,2,3,4-tetrahydroquinolin-1-yl)-1,2,3,4-tetrahydroquinoline]
The melting point of the first is higher: 176 to 177 °C for the first, 159 to 160 °C for the second.

Compared with CCCCC1C(O)C(N2CCCc3ccccc32)c2ccccc2N1C(=O)c1ccc(OC)c(OC)c1 (stereo not drawn) [Example 76, 2,3-trans-2,4-cis-2-Butyl-1-(3,4-dimethoxybenzoyl)-3-hydroxy-4-(1,2,3,4-tetrahydroquinolin-1-yl)-1,2,3,4-tetrahydroquinoline], COc1ccc(C(=O)N2c3ccccc3C(N3CCCc4cc(C(C)C)ccc43)C(O)C2C)cc1OC (stereo not drawn) [Example 84, 2,3-trans-2,4-cis-1-(3,4-Dimethoxybenzoyl)-3-hydroxy-4-(6-isopropyl-1,2,3,4-tetrahydroquinolin-1-yl)-2-methyl-1,2,3,4-tetrahydroquinoline] is lower in melting point: 200 to 202 °C for the first, 165 to 166 °C for the second.

First: COc1ccc(C(=O)N2c3ccccc3C(N3CCCc4cc(C)ccc43)CC2C)cc1OC (stereo not drawn) [Example 83, 2,4-cis-1-(3,4-Dimethoxybenzoyl)-2-methyl-4-(6-methyl-1,2,3,4-tetrahydroquinolin-1-yl)-1,2,3,4-tetrahydroquinoline]
Second: COc1ccc(C(=O)N2c3ccccc3C(N3CCCc4cc(C(C)C)ccc43)CC2C)cc1OC (stereo not drawn) [Example 85, 2,4-cis-4-(6-Isopropyl-1,2,3,4-tetrahydroquinolin-1-yl)-1-(3,4-dimethoxybenzoyl)-2-methyl-1,2,3,4-tetrahydroquinoline]
The melting point of the first is lower: 184 to 185 °C for the first, 187 to 188 °C for the second.

First: CCOc1ccc(C(=O)N2c3ccccc3C(N3CCCc4ccccc43)CC2C)cc1OCC (stereo not shown) [Example 102, 1-(3,4-Diethoxybenzoyl)-2-methyl-4-(1,2,3,4-tetrahydroquinolin-1-yl)-1,2,3,4-tetrahydroquinoline]
Second: CCCCC1CC(n2c3ccccc3c3ccccc32)c2ccccc2N1C(=O)c1ccc(OCC)c(OCC)c1 (stereo not drawn) [Example 149, 2,4-cis-9-[2-Butyl-1-(3,4-diethoxybenzoyl)-1,2,3,4-tetrahydro-4-quinolinyl]-9H-carbazole]
The melting point of the first is lower: 157 to 158 °C for the first, 232 to 233 °C for the second.

First: COc1ccc(C(=O)N2c3ccccc3C(n3c4ccccc4c4ccccc43)CC2CCCc2ccccc2)cc1OC (stereo not drawn) [Example 116, 9-[2,4-cis-1-(3,4-Dimethoxybenzoyl)-2-(3phenylpropyl)-1,2,3,4-tetrahydroquinolin-4-yl]-9H-carbazole]
Second: COc1ccc(C(=O)N2c3ccccc3C(n3c4ccccc4c4ccccc43)CC2CCCNC(=O)c2ccccc2)cc1OC (stereo not drawn) [Example 124, N-[3-[2,4-cis-4-(9H-9-Carbazolyl)-1-(3,4-dimethoxybenzoyl)-1,2,3,4-tetrahydroquinolin-2-yl]propyl]-benzamide]
The melting point of the first is lower: 225 to 226 °C for the first, 236 to 237 °C for the second.

First: COc1ccc(C(=O)N2c3ccccc3C(n3c4ccccc4c4ccccc43)CC2CCCO)cc1OC (stereo not drawn) [Example 118, 3-[2,4-cis-4-(9H-9-Carbazolyl)-1-(3,4-dimethoxybenzoyl)-1,2,3,4-tetrahydroquinolin-2-yl]-1-propanol]
Second: CCCC(=O)NCCCC1CC(n2c3ccccc3c3ccccc32)c2ccccc2N1C(=O)c1ccc(OC)c(OC)c1 (stereo not drawn) [Example 122, N-[3-[2,4-cis-4-(9H-9-Carbazolyl)-1-(3,4-dimethoxybenzoyl)-1,2,3,4-tetrahydroquinolin-2-yl]propyl]butanamide]
The melting point of the first is lower: 192 to 194 °C for the first, 199 to 201 °C for the second.

First: CCCC1CC(n2c3ccccc3c3ccccc32)c2ccccc2N1C(=O)c1ccc(OCC)c(OC)c1 (stereo not drawn) [Example 146, 2,4-cis-4-(9H-9-Carbazolyl)-1-(4-ethoxy-3-methoxybenzoyl)-2-propyl-1,2,3,4-tetrahydroquinoline]
Second: CCCCC1CC(n2c3ccccc3c3ccccc32)c2ccccc2N1C(=O)c1ccc(OCC)c(OC)c1 (stereo not drawn) [Example 148, 2,4-cis-9-[2-Butyl-1-(4-ethoxy-3-methoxybenzoyl)-1,2,3,4-tetrahydro-4-quinolinyl]-9H-carbazole]
The melting point of the first is lower: 221 to 222 °C for the first, 231 to 232 °C for the second.

First: CCC1CC(n2c3ccccc3c3ccccc32)c2ccccc2N1C(=O)c1ccc(SC)c(OC)c1 (stereo not drawn) [Example 150, 2,4-cis-9-[2-Ethyl-1-(3-methoxy-4-methylthiobenzoyl)-1,2,3,4-tetrahydro-4-quinolinyl]-9H-carbazole]
Second: CCCCC1CC(n2c3ccccc3c3ccccc32)c2ccccc2N1C(=O)c1ccc(SC)c(OC)c1 (stereo not drawn) [Example 151, 2,4-cis-9-[2-Butyl-1-(3-methoxy-4-methylthiobenzoyl)-1,2,3,4-tetrahydro-4-quinolinyl]-9H-carbazole]
The melting point of the first is lower: 210 to 211 °C for the first, 230 to 231 °C for the second.

First: CCOC(=O)CCCCC1CC(n2c3ccccc3c3ccccc32)c2ccccc2N1C(=O)c1ccc(OC)cc1 (stereo not shown) [Example 157, Ethyl 5-[4-(9H-9-carbazolyl)-1-(4-methoxybenzoyl)-1,2,3,4-tetrahydro-2-quinolinyl]pentanoate]
Second: COc1ccc(C(=O)N2c3ccccc3C(N3CCCc4c(Cl)cccc43)=CC2C)cc1OC (stereo not shown) [Example 160, 4-(5-Chloro-1,2,3,4-tetrahydroquinolin-1-yl)-1-(3,4-dimethoxybenzoyl)-2-methyl-1,2-dihydroquinoline]
The melting point of the first is higher: 167 to 168 °C for the first, 162 to 163 °C for the second.
